Test results: PubChem BioAssay AID330 (DTP/NCI, 2004)
Where “and” joins values, the source holds several entries; their conditions need not be identical. Equal entries are not always repeated. Inconclusive results and toxic doses are left out. The calls were made as follows: active = survival T/C of 150% or more; inactive = T/C below 125% in these data.

Test system: P388 leukemia ip, CD2F1 mice, survival T/C
Assay: NCI In Vivo Anticancer Drug Screen. Data for tumor model P388 Leukemia (intraperitoneal) in CD2F1 (CDF1) mice
Conditions: endpoint: median survival time, higher = longer survival
In short: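 Mice carrying the transplanted tumor received test compound or vehicle. Survival was recorded in each group, and the value is the treated-group measurement divided by that of the vehicle-treated control group.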

[1] = dose: 10.0 mg/kg/injection, schedule: Q01DX009 (ip), vehicle: saline
[2] = dose: 20.0 mg/kg/injection, schedule: Q01DX009 (ip), vehicle: saline
[3] = dose: 40.0 mg/kg/injection, schedule: Q01DX009 (ip), vehicle: saline
[4] = dose: 100.0 mg/kg/injection, schedule: Q01DX001 (ip), vehicle: saline
[5] = dose: 100.0 mg/kg/injection, schedule: Q04DX003 (ip), vehicle: saline
[6] = dose: 50.0 mg/kg/injection, schedule: Q01DX009 (ip), vehicle: saline with Tween-80
[7] = dose: 100.0 mg/kg/injection, schedule: Q01DX009 (ip), vehicle: saline with Tween-80
[8] = dose: 200.0 mg/kg/injection, schedule: Q01DX009 (ip), vehicle: saline with Tween-80
[9] = dose: 60.0 mg/kg/injection, schedule: Q01DX005 (ip), vehicle: Klucel (hydroxypropylcellulose) (HPC)
[10] = dose: 120.0 mg/kg/injection, schedule: Q01DX005 (ip), vehicle: Klucel (hydroxypropylcellulose) (HPC)
[11] = dose: 240.0 mg/kg/injection, schedule: Q01DX005 (ip), vehicle: Klucel (hydroxypropylcellulose) (HPC)
[12] = dose: 50.0 mg/kg/injection, schedule: Q01DX009 (ip), vehicle: saline
[13] = dose: 100.0 mg/kg/injection, schedule: Q01DX009 (ip), vehicle: saline
[14] = dose: 200.0 mg/kg/injection, schedule: Q01DX009 (ip), vehicle: saline
[15] = dose: 50.0 mg/kg/injection, schedule: Q01DX005 (ip), vehicle: Klucel (hydroxypropylcellulose) (HPC)
[16] = dose: 100.0 mg/kg/injection, schedule: Q01DX005 (ip), vehicle: Klucel (hydroxypropylcellulose) (HPC)
[17] = dose: 200.0 mg/kg/injection, schedule: Q01DX005 (ip), vehicle: Klucel (hydroxypropylcellulose) (HPC)

Measured: T/C

CNC(=O)ON(C(C)=O)C(=O)NC
inactive: dose: 3.13 mg/kg/injection, schedule: Q03HX015 (ip), vehicle: water 101 % of control and 118 % of control | dose: 6.25 mg/kg/injection, schedule: Q01DX001 (iv), vehicle: saline 95 % of control | dose: 6.25 mg/kg/injection, schedule: Q01DX005 (iv), vehicle: saline 100 % of control | dose: 6.25 mg/kg/injection, schedule: Q01DX009 (ip), vehicle: saline 118 % of control | dose: 6.25 mg/kg/injection, schedule: Q03HX015 (ip), vehicle: water 121 % of control and 98 % of control | [1] 114 % of control and 119 % of control and 120 % of control | dose: 12.5 mg/kg/injection, schedule: Q01DX001 (iv), vehicle: saline 98 % of control | dose: 12.5 mg/kg/injection, schedule: Q01DX005 (ip), vehicle: saline 116 % of control | dose: 12.5 mg/kg/injection, schedule: Q01DX005 (iv), vehicle: saline 102 % of control | dose: 12.5 mg/kg/injection, schedule: Q01DX005 (oral), vehicle: saline 101 % of control | dose: 12.5 mg/kg/injection, schedule: Q01DX009 (ip), vehicle: water 103 % of control and 120 % of control | dose: 12.5 mg/kg/injection, schedule: Q01DX009 (oral), vehicle: saline 103 % of control | dose: 12.5 mg/kg/injection, schedule: Q03HX015 (ip), vehicle: saline 115 % of control | dose: 12.5 mg/kg/injection, schedule: Q03HX015 (ip), vehicle: water 99 % of control and 116 % of control | [2] 121 % of control | dose: 25.0 mg/kg/injection, schedule: Q01DX001 (ip), vehicle: saline 106 % of control | dose: 25.0 mg/kg/injection, schedule: Q01DX001 (iv), vehicle: saline 100 % of control | dose: 25.0 mg/kg/injection, schedule: Q01DX001 (oral), vehicle: saline 98 % of control | dose: 25.0 mg/kg/injection, schedule: Q01DX005 (ip), vehicle: saline 116 % of control | dose: 25.0 mg/kg/injection, schedule: Q01DX005 (iv), vehicle: saline 104 % of control | dose: 25.0 mg/kg/injection, schedule: Q01DX005 (oral), vehicle: saline 104 % of control | dose: 25.0 mg/kg/injection, schedule: Q01DX009 (ip), vehicle: water 106 % of control | dose: 25.0 mg/kg/injection, schedule: Q01DX009 (oral), vehicle: saline 120 % of control | dose: 25.0 mg/kg/injection, schedule: Q03HX015 (ip), vehicle: water 107 % of control | [3] 124 % of control | dose: 50.0 mg/kg/injection, schedule: Q01DX001 (ip), vehicle: saline 111 % of control | dose: 50.0 mg/kg/injection, schedule: Q01DX001 (iv), vehicle: saline 101 % of control and 102 % of control | dose: 50.0 mg/kg/injection, schedule: Q01DX001 (oral), vehicle: saline 97 % of control | dose: 50.0 mg/kg/injection, schedule: Q01DX005 (ip), vehicle: saline 114 % of control | dose: 50.0 mg/kg/injection, schedule: Q01DX005 (iv), vehicle: saline 106 % of control and 108 % of control | dose: 50.0 mg/kg/injection, schedule: Q01DX005 (oral), vehicle: saline 110 % of control | dose: 50.0 mg/kg/injection, schedule: Q01DX009 (ip), vehicle: water 107 % of control | dose: 50.0 mg/kg/injection, schedule: Q01DX009 (oral), vehicle: saline 115 % of control | dose: 50.0 mg/kg/injection, schedule: Q03HX015 (ip), vehicle: water 112 % of control | dose: 80.0 mg/kg/injection, schedule: Q01DX009 (ip), vehicle: saline 121 % of control | [4] 105 % of control | dose: 100.0 mg/kg/injection, schedule: Q01DX001 (iv), vehicle: saline 99 % of control and 101 % of control | dose: 100.0 mg/kg/injection, schedule: Q01DX001 (oral), vehicle: saline 103 % of control | dose: 100.0 mg/kg/injection, schedule: Q01DX005 (iv), vehicle: saline 114 % of control and 115 % of control | dose: 100.0 mg/kg/injection, schedule: Q01DX005 (oral), vehicle: saline 120 % of control | dose: 100.0 mg/kg/injection, schedule: Q01DX009 (ip), vehicle: water 121 % of control | dose: 200.0 mg/kg/injection, schedule: Q01DX001 (iv), vehicle: saline 107 % of control | dose: 200.0 mg/kg/injection, schedule: Q01DX001 (oral), vehicle: saline 103 % of control | dose: 200.0 mg/kg/injection, schedule: Q01DX005 (oral), vehicle: saline 116 % of control | dose: 200.0 mg/kg/injection, schedule: Q01DX009 (ip), vehicle: water 123 % of control | dose: 400.0 mg/kg/injection, schedule: Q01DX001 (oral), vehicle: saline 116 % of control

O=S(=O)(NO)c1cccc(S(=O)(=O)NO)c1
inactive: dose: 25.0 mg/kg/injection, schedule: Q04DX003 (ip), vehicle: saline 110 % of control | dose: 50.0 mg/kg/injection, schedule: Q04DX003 (ip), vehicle: saline 115 % of control | [5] 110 % of control

Cc1cc(Cl)c(C)cc1Cl
inactive: [6] 91 % of control | [7] 95 % of control | dose: 100.0 mg/kg/injection, schedule: Q04DX003 (ip), vehicle: saline with Tween-80 105 % of control | [8] 95 % of control | dose: 200.0 mg/kg/injection, schedule: Q04DX003 (ip), vehicle: saline with Tween-80 110 % of control | dose: 400.0 mg/kg/injection, schedule: Q04DX003 (ip), vehicle: saline with Tween-80 110 % of control

Cc1cc(C)nc(NS(=O)(=O)c2ccc(NC(=O)NCCCl)cc2)n1
inactive: dose: 30.0 mg/kg/injection, schedule: Q01DX005 (ip), vehicle: Klucel (hydroxypropylcellulose) (HPC) 106 % of control | [9] 107 % of control | [10] 100 % of control | [11] 114 % of control

N#Cc1ncc(C[n+]2ccccc2)nc1N
inactive: [1] 109 % of control | [2] 107 % of control | [3] 100 % of control

CC1(C(=O)O)C2[Se]c3cc[se]c3C2C1(C)C(=O)O (stereo not given)
inactive: dose: 50.0 mg/kg/injection, schedule: Q01DX005 (ip), vehicle: saline with Tween-80 100 % of control | dose: 100.0 mg/kg/injection, schedule: Q01DX005 (ip), vehicle: saline with Tween-80 100 % of control | dose: 200.0 mg/kg/injection, schedule: Q01DX005 (ip), vehicle: saline with Tween-80 104 % of control

COC1OC(CO)C(O)C(O)C1O (stereo not given)
inactive: [12] 100 % of control | [13] 94 % of control and 104 % of control | [5] 109 % of control | [14] 101 % of control and 100 % of control | dose: 200.0 mg/kg/injection, schedule: Q04DX003 (ip), vehicle: saline 95 % of control | dose: 400.0 mg/kg/injection, schedule: Q01DX009 (ip), vehicle: saline 106 % of control and 101 % of control | dose: 400.0 mg/kg/injection, schedule: Q04DX003 (ip), vehicle: saline 95 % of control

CC(C)(C)C(=O)CC(Cc1nccc2ccccc12)c1ccccc1 (stereo not given)
inactive: [6] 106 % of control | [7] 104 % of control | [8] 103 % of control

CS(=O)(=O)OCCCCC/C=C/CCCCCCC1C=CCC1 (stereo not given)
inactive: [4] 98 % of control | dose: 200.0 mg/kg/injection, schedule: Q01DX001 (ip), vehicle: saline 99 % of control | dose: 400.0 mg/kg/injection, schedule: Q01DX001 (ip), vehicle: saline 100 % of control

CCOC(=O)C(=NNc1cc(OC)c(Cl)cc1OC)C(=O)OCC
inactive: [15] 94 % of control | [16] 94 % of control | [17] 94 % of control

CS(=O)CC(Nc1ccccc1)c1ccccc1 (stereo not given)
inactive: [9] 108 % of control | [10] 95 % of control | [11] 87 % of control

CC1(C)COC(c2cc(Br)ccc2Br)=N1
inactive: dose: 12.5 mg/kg/injection, schedule: Q01DX009 (ip), vehicle: saline with Tween-80 100 % of control | dose: 25.0 mg/kg/injection, schedule: Q01DX009 (ip), vehicle: saline with Tween-80 102 % of control | [6] 97 % of control | [7] 97 % of control | [8] 101 % of control

C=CC(=O)NC(C)C(=O)O (stereo not given)
inactive: [12] 100 % of control | [13] 99 % of control | [14] 107 % of control

CC1(C)CC(N2CCN(CCO)CC2)=CC(=S)N1
inactive: [15] 103 % of control | [16] 93 % of control | [17] 104 % of control
